Data taken from US12139481B2, “Compositions comprising macrocycle derivatives incorporating bridged macrocycles and methods of producing and using same” (Southwestern Oklahoma State University, priority 2015, dated 2024).

Test system: Cryptococcus neoformans ATCC 90113
Experiment: Antimicrobial microdilution assay against Cryptococcus neoformans (modified CLSI/NCCLS, optical density)
Type: cell-based
Details: for X more potent than Amphotericin B: C. neoformans, ratio of molar IC50 to Amphotericin B; for C. neoformans IC50 / IC50: in vitro, C. neoformans ATCC 90113; for IC50: read-out: C. neoformans IC50 (mol/L)
Method: Summary: Various macrocyclic derivatives constructed in accordance with the presently disclosed and/or claimed inventive concept(s) were screened in vitro against Cryptococcus neoformans ATCC 90113 using a microdilution assay. The minimum fungicidal concentration (MFC), the lowest test concentration that kills the organism, was determined in broth media.
Antimicrobial assay: Cryptococcus neoformans ATCC 90113 were obtained from the American Type Culture Collection (Manassas, VA.). The susceptibility testing was performed using a modified version of the CLSI (formerly NCCLS) methods (see below), and optical density was used to monitor growth. Samples were serially diluted in 20% DMSO/saline and transferred in duplicate to 96-well flat bottom microplates. Microbial inocula were prepared by correcting the OD630 of cell/spore suspensions in incubation broth RPMI at pH 6.0 to afford final desired target inocula. Amphotericin B (“AMB;” ICN Biomedicals, OH) was used as drug control. The organism concentration was read at 630 nm using the Biotek Powerwave XS plate reader (Bio-Tek instruments, VT) prior to and after incubation. Minimum fungicidal concentrations were determined by removing 5 μL from each clear well, transferring to agar, and incubating until growth was seen. The MFC/MBC is defined as the lowest test concentration that kids the organism (allows no growth on agar).
References for NCCLS methods referenced above: 1 NCCLS. Reference method for broth dilution antifungal susceptibility testing of yeasts, Vol. 22. Approved standard, 2nd ed. Wayne: National Committee for Clinical Laboratory Standards; 2002: 1-51. 2 NCCLS. Reference method for broth dilution antifungal susceptibility testing of conidium forming filamentous fungi, Vol. 18. Proposed standard M38-P. Wayne: National Committee for Clinical Laboratory Standards; 1998: 1-39. 3 NCCLS. Methods for dilution antimicrobial susceptibility tests for bacteria that grow aerobically, Vol. 20. NCCLS Document M7-A5. Wayne: National Committee for Clinical Laboratory Standards; 2000: 1-58.
The term “IC50” as used herein will be understood to refer to a test concentration in mol/L that affords 50% inhibition of the microbe relative to negative and positive controls. […] The abbreviation “MFC” as used herein will be understood to refer to a minimum fungicidal concentration, or the lowest test concentration in mol/L that kills the organism. All IC50s are calculated using the XLfit® fit curve fitting software (ID Business Solutions Ltd, Guildford, Surrey, UK).
General Experimental Procedures. All organisms were obtained from the American Type Culture Collection (Manassas, VA) and include the fungi Candida albicans ATCC 90028, C. glabrata ATCC 90030, C. krusei ATCC 6258, and Cryptococcus neoformans ATCC 90113, and the bacteria Staphylococcus aureus ATCC 29213 and methicillin-resistant S. aureus ATCC 33591 (MRS). All organisms were tested using modified versions of the CLSI (formerly NCCLS) methods. For all organisms, optical density was used to monitor growth (NCCLS, Reference Method for Broth Dilution Antifungal Susceptibility Testing of Yeasts; Approved Standard M27-A2. National Committee on Clinical Laboratory Standards, 2002 22 (15); and NCCLS, Methods for Dilution Antimicrobial Susceptibility Tests for Bacteria that Grow Aerobically; Approved Standard, Seventh Edition M7-A7. National Committee on Clinical Laboratory Standards, 2006. 26(2)).
Samples (dissolved in DMSO) were serially-diluted in 20% DMSO/saline and transferred (10 μL) in duplicate to 96 well flat bottom microplates.

Row | Molecule | X more potent than Amphotericin B | C. neoformans IC50 [mg/L] | IC50 [µM]
1 | C1CNCCN2CCCNCCN(C1)CCC2.CC(=O)[O-].F[P-](F)(F)(F)(F)F.F[P-](F)(F)(F)(F)F.F[P-](F)(F)(F)(F)F.[NH4+].[NH4+].[Ni+2] [SLK39B, [Ni(H2PBCyclam)(OAc)]PF6•2NH4PF6] | 0.03 | 5.890 | 7.1
2 | C1CNCCN2CCCNCCN(C1)CCC2.CC(=O)[O-].F[P-](F)(F)(F)(F)F.F[P-](F)(F)(F)(F)F.F[P-](F)(F)(F)(F)F.[Cu+2].[NH4+].[NH4+] [SLK40B, [Cu(H2PBCyclam)(OAc)]PF6•2NH4PF6] | 0.03 | 6.930 | 8.31
3 | [Cl][Fe-2]([Cl])([Cl])[Cl].[Cl][Fe-2]([Cl])([Cl])[Cl].[Fe+2].[Fe+2].c1cc(CN2CCCN3CCNCCCN(CC3)CC2)ccc1CN1CCCN2CCNCCCN(CC2)CC1 [TJH413B, [Fe2(H2-p-CB-cyclams)][FeCl4]2] | 0.03 | 7.380 | 6.95
4 | CC(=O)[O-].CC(=O)[O-].CC(=O)[O-].F[P-](F)(F)(F)(F)F.F[P-](F)(F)(F)(F)F.F[P-](F)(F)(F)(F)F.[Co+3].[Co+3].c1cc(CN2CCCN3CCNCCCN(CC3)CC2)ccc1CN1CCCN2CCNCCCN(CC2)CC1 [TJH414B, [Co2(H2-p-CB-cyclams)(OAc)3][PF6]3] | 1.31 | 0.234 | 0.182
5 | CC(=O)[O-].CC(=O)[O-].F[P-](F)(F)(F)(F)F.F[P-](F)(F)(F)(F)F.[Ni+2].[Ni+2].c1cc(CN2CCCN3CCNCCCN(CC3)CC2)ccc1CN1CCCN2CCNCCCN(CC2)CC1 [TJH415B, [Ni2(H2-p-CB-cyclams)(OAc)2][PF6]2] | 0.30 | 0.850 | 0.787
6 | CC(=O)[O-].CC(=O)[O-].F[P-](F)(F)(F)(F)F.F[P-](F)(F)(F)(F)F.O.O.O.O.O.[Cu+2].[Cu+2].c1cc(CN2CCCN3CCNCCCN(CC3)CC2)ccc1CN1CCCN2CCNCCCN(CC2)CC1 [TJH416B, [Cu2(H2-p-CB-cyclams)(OAc)2][PF6]2•5H2O] | 0.09 | 3.030 | 2.57
7 | CC(=O)[O-].CN1CCN2CCN(CC1)CCN(Cc1ccccc1)CC2.F[P-](F)(F)(F)(F)F.F[P-](F)(F)(F)(F)F.[Co+3] [TRH15, [Co(Bn1Me1Bcyclen)(OAc)][PF6]2] | 0.21 | ≤ 0.800 | 1.13
8 | CC(=O)[O-].CN1CCCN2CCN(CCCN(Cc3ccccc3)CC2)CC1.F[P-](F)(F)(F)(F)F.[Co+2] [TRH16, [Co(Bn1Me1Bcyclam)(OAc)]PF6] | 0.02 | 9.190 | 15.5
9 | Ni(Py-SB-Cyclam)Cl2•3H2O [ADS20] | 0.01 | 18.590 | 37.1
10 | [Co2(p-CB-Homocyclens)(OAc)2][PF6]2 [TJH379A] | 0.32 | ≤ 0.800 | 0.74
11 | [Co(Me1Pic1-CB-cyclen)](PF6)3 [KRW48] | 0.18 | 1.090 | 1.3
12 | [Co(Me1Py1-CB-Cyclam)Cl]PF6 [DGJ012] | 0.03 | 4.730 | 8.29
13 | [Cu2(m-SB-cyclam-cyclen)(OAc)][PF6]3•2H2O [CMB034] | 0.35 | ≤ 0.800 | 0.676
14 | [Cu2(p-CB-Homocyclens)(OAc)2][PF6]2 [ANC011] | 0.06 | 4.190 | 3.85
15 | [Cu2(p-SB-cyclam-cyclen)(OAc)1.2][PF6]2.8 [CMB018] | 0.09 | 3.020 | 2.67
16 | [Cu(Bn2PBCyclen)(C2H3O2)0.4][PF6]1.6 [AW040] | 0.02 | 7.050 | 9.91
17 | [Cu(dcp1-SB-cyclen)(OAc)]PF6 [OB105] | 0.08 | 2.190 | 3.1
18 | [Fe2(m-cyclam-homocyclen)][FeCl4]2•7H2O [AW048] | 0.17 | 1.660 | 1.38
19 | [Fe(Py-SB-Cyclam)Cl]PF6 [ADS18C] | 0.01 | 18.540 | 33.5
20 | [Mn(Py-SB-Cyclam)Cl]PF6•3H2O [ADS17] | 0.03 | 5.220 | 8.6
21 | [Ni2(m-SB-cyclam-cyclen)(OAc)][PF6]3 [CMB033] | 0.16 | 1.710 | 1.5
22 | [Ni2(p-SB-cyclam-cyclen)(OAc)][PF6]3•H2O [CMB017A] | 0.06 | 4.940 | 4.27
23 | [Zn2(m-CB-Homocyclens)(OAc)0.5][PF6]3.5 [CDG037] | 0.18 | 1.620 | 1.32
24 | [Zn2(m-SB-cyclam-cyclen)(OAc)2][PF6]2•3.3H2O [CMB035] | 0.33 | ≤ 0.800 | 0.711
25 | [Zn(H2PBCyclam)(OAc)]PF6•2.5NH4PF6 [SLK41] | 0.04 | 5.190 | 5.66
26 | [Zn(Me1-SB-Cyclam)(C2H3O2)]PF6 [DLM32] | 0.01 | 17.280 | 33.9
27 | [Zn(Me1Pic1-CB-cyclen)](PF6)2 [KRW49] | 0.03 | 5.230 | 7.53
28 | m-CB-cyclam-cyclen [DGJ036] | 0.02 | 5.800 | 10.5
